Reference: patent US20250381165A1, “Method of Use for Benzofuran Compounds” (Tampa Bay Research Institute, Inc., priority 2024, published 2025)
Read-outs that look alike come from different tables or passages of the source. Values belong to the compound of their own block, whether it stands above or below them.

What was measured:
Assay type in all cases: cell-based, murine
[1] = system: DC2.4 cells (B3Z activation); test: Pathway inhibitor studies in DC2.4/B3Z assay
Procedure: […]. The cytotoxicity of all inhibitors was assessed using CellTiter96 Aqueous One (Promega (Madison WI, USA); cat. no. G3580).
. The cells were then washed 2× before addition of BzFβ. Cells exposed to the other inhibitors were incubated with an appropriate concentration of each inhibitor, seen in Table 1 in cDMEM at 37° C., 5% CO2. […]. Cells were then incubated for 6 h. Before B3Z addition the inhibitor and BzFβ were removed, and the cells washed with warm DPBS. If testing peptide presentation, the DC2.4 cells were pulsed with 0.5 nM […] for 1 h prior to being cocultured with B3Z.

[2] = system: B16F10 cells (B3Z activation); test: B3Z activation by B16F10 (OVA or SIINFEKL)
Procedure: B16F10 were plated at a density of 2.5 or 5×10^4 cells/well (100 μL/well in 96 well plates) and cultured overnight in cDMEM. The cells were washed with DPBS and then treated for 1-24 h with the indicated concentrations of BzFβ or co-treated with the indicated concentrations of BzFβ and 1.0 mg/mL OVA, suspended in complete media. Cells treated with BzFβ only were pulsed with 2 nM SIINFEKL pulsed for 1 h. The cells were then co-cultured with equal number of B3Z cells at 37° C. for 19 h.
In this experiment the activity of the dipeptide, GL, was also examined, as it has been previously reported to function as a peptide exchange factor. (Saini, et al., Dipeptides catalyze rapid peptide exchange on MHC class I molecules. Proc Natl Acad Sci USA. 2015 Jan. 6; 112(1):202-7; Saini, et al., Empty peptide-receptive MHC class I molecules for efficient detection of antigen-specific T cells. Sci Immunol. 2019 Jul. 19; 4(37):eaau9039). B16F10 were plated at a density of 2.5 or 5×10^4 cells/well (100 μL/well in 96 well plates) and cultured overnight in cDMEM. The cells were washed with DPBS and then co-treated for 24 h with 10 mM (1.88 mg/mL) of GL and 1.0 mg/mL OVA or were pulsed with 2 nM SIINFEKL for 1 h following treatment with 10 mM GL in complete media. The cells were then co-cultured with an equal number of B3Z cells at 37° C. for 19 h.

[3] = system: MHC class I H-2Kb on DC2.4; test: MHC class I recovery after acid stripping of DC2.4; conditions: 25 μg/mL BzFβ or 5 mM GL during recovery, 4-24 h
Procedure: To determine if BzFβ affects synthesis or cycling of the MHC class I molecules, the class I molecule/peptide complexes were stripped from the surface of DC2.4 cells using a citric acid buffer, then treated with 25 μg/mL BzFβ, 5 mM of the dipeptide GL, or 3 μg/mL BFA (see Example 4) as a negative control.
An acid wash to strip the cell surface of MHC class I was performed as described with modifications. (Montealegre, et al., Dissociation of β2-microglobulin determines the surface quality control of major histocompatibility complex class I molecules. FASEB. 2015 July; 29(7):2780-8). DC2.4 were incubated overnight at 37° C. at 1×10^5. Cells were washed for 2 min in acidic buffer [(pH 2.5) 465 mM Citric acid, 35 mM sodium citrate, in PBS with 1% v/v FBS] or neutral buffer [(pH 7.4) PBS with 1% v/v FBS]. Afterwards the pH was neutralized by the addition of cDMEM. The cells were washed with PBS and treated with BzFβ or GL in cDMEM for various times to allow for MHC class I recovery at 37° C. Cells were washed and stained with an H-2Kb-specific antibody (Invitrogen, cat. no. 12-5958-82) and analyzed by flow cytometry as described previously
MHC I recovery on the cell surface at various time points was detected by flow cytometry using the PE-labeled MHC class I H-2Kb specific antibody (AF6-88.5.5.3). […] At 6 hours >60% of the MHC class I molecules recovered, seen in FIG. 14.

[4] = molecular target: T1, H-2Kb/SIINFEKL complex on DC2.4 (Mus musculus, UniProt P01901); test: BFA decay experiment (SIINFEKL off-rate) on DC2.4; conditions: 24 h pre-treatment, 1 h 30 nM SIINFEKL
T1 construct: DC2.4 are a C57Bl/6 lineage murine cell line and as such they express MHC class I H-2Kb and H-2Db; endogenous in cells; host or cells: DC2.4 (murine dendritic cell line, from Dr. Kenneth Rock)

[5] = molecular target: T2, MHCI/SIINFEKL complex on DC2.4 (Mus musculus, UniProt P01901); test: Displacement of SIINFEKL from DC2.4 after peptide pulse
T2 construct: DC2.4 are a C57Bl/6 lineage murine cell line and as such they express MHC class I H-2Kb and H-2Db; endogenous in cells; host or cells: DC2.4 (murine dendritic cell line, from Dr. Kenneth Rock)
T2 sequence (P01901 22-369): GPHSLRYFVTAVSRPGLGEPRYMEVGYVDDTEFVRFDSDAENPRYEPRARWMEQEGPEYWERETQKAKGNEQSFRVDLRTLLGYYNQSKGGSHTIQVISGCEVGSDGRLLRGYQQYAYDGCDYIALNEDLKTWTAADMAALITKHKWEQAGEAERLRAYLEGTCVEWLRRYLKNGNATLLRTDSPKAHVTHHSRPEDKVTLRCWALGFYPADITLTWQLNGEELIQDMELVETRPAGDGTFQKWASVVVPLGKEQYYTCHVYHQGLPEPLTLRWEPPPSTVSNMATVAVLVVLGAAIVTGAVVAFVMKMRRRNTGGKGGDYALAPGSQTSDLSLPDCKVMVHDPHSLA
T2 sequence (P01887 21-119 partner): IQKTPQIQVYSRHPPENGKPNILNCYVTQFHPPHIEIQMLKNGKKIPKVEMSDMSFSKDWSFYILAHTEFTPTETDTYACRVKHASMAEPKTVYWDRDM

[6] = system: DC2.4 cells presenting SIINFEKL to B3Z CD8+ T cell hybridoma; test: B3Z activation by SIINFEKL-pulsed DC2.4 (CPRG β-gal assay); conditions: doses up to 50 μg/mL (265 μM), 0.5 nM SIINFEKL
Procedure: DC2.4 cells (2.5×10^4 cells/well) were seeded at 100 μL/well in 96 well tissue culture white sided/white bottom plate and incubated overnight to allow for cell adherence. 37° C. in an atmosphere containing 5% CO2 and 95% humidity. Following pre-treatment of the DC2.4 cells (1-24 h) with escalating doses of the test molecules, the cells were washed, pulsed with 0.5 nM of the MHC class I H-2Kb peptide, SIINFEKL, for 1 h, and then co-cultured with the CD8+ T cell hybridoma, B3Z.
The level of B3Z cell activation and the effects of the various test molecules on B3Z activation were quantified in cell lysates using the β-gal chromogenic substrate, CPRG. The media was removed and 100 μL of 250 μM CPRG reconstituted in the lysis buffer (1×DPBS, 0.2% v/v saponin, 20 mM magnesium chloride) was added directly to each well. Cells were maintained at 37° C. prior to measurement. The absorbance at 560 nm (700 nm for background) was intermittently monitored using a BioTek Synergy HTX multimode microplate reader (Winooski, VT) to detect β-gal activity. CPRG lysis buffer and B3Z cells only served as the negative controls. All treatments were performed in triplicate and all experiments were repeated a minimum of three times.
Activation of B3Z T cell hybridoma cells was assessed following their exposure to various MHC class I H-2K^b positive cell lines presenting the SIINFEKL peptide. B3Z are a CD8+ SIINFEKL peptide specific T-cell hybridoma expressing a beta-galactosidase (β-gal) reporter gene driven by NF-AT elements on the interleukin 2 (IL-2) promoter. […] Activation of B3Z leads to production of β-gal whose presence can be quantified using the optimized detection assay described by Jendresen et al. (Jendresen, et al., An improved CPRG colorimetric ligand-receptor signal transduction assay based on beta-galactosidase activity in mammalian BWZ-reporter cells. J Pharmacol Toxicol Methods. 2018 March-April; 90:67-75).
To stimulate β-gal production in the B3Z, the H-2Kb murine cell lines, DC2.4, B16F10, and E.G7-OVA, or freshly isolated murine splenocytes, were plated at a density of 2.5 or 5×10^4 cells/well (100 μL/well in 96 well plates) and cultured overnight at 37° C. in an atmosphere containing 5% CO2 and 95% humidity. The cells were washed with DPBS and then treated for 1-24 h with the indicated concentrations of BzFβ suspended in complete media. Vehicle controls were always included. […]
To detect activation of the B3Z cells, the media was removed and 100 μL of 250 µM CPRG reconstituted in the lysis buffer (1×DPBS, 0.2% v/v saponin, 20 mM magnesium chloride) was added directly to each well. […] The absorbance at 560 nm (700 nm for background) was intermittently monitored using a BioTek Synergy HTX multimode microplate reader (Winooski, VT) to detect β-gal activity. […]

[7] = DC2.4 pulsed with SIINFEKL, data not shown
[8] = DC2.4 pulsed with […], data not shown

SMILES: Cn1cnc(N)c2ncnc1-2 [3-methyladenine, 3-Methyladenine]
inhibition of BzFβ enhancement of B3Z activation [1, 7]: failed to inhibit

SMILES: C[C@H]1CCC/C=C/[C@@H]2C[C@H](O)C[C@H]2[C@H](O)/C=C/C(=O)O1 [BFA, Brefeldin A]
effect of BFA on B3Z activation with OVA as antigen source ([1]; DC2.4, 3 μg/mL BFA 1 h pretreatment, 0.5 mg/mL OVA): significantly suppressed

SMILES: CO/C1=C\C(C)=C\[C@@H](C)[C@@H](O)[C@@H](C)C/C(C)=C/C=C/[C@H](OC)[C@@H]([C@@H](C)[C@@H](O)[C@H](C)[C@@]2(O)C[C@@H](O)[C@H](C)[C@@H](C(C)C)O2)OC1=O [Bafilomycin A1]
inhibition of BzFβ enhancement of B3Z activation [1, 8]: failed to inhibit

decay rate of SIINFEKL / stability of H-2Kb/SIINFEKL complex [4]: no increase in overall stability
MHCI/SIINFEKL complex staining versus untreated cells ([5]; 5 mM GL after 1 h pulse 30 nM SIINFEKL, p=0.0027): significantly reduced
concentration of dipeptides required relative to BzFβ ([5]; displace or enhance peptide binding): 3 fold
SMILES: CC(C)CC(NC(=O)CN)C(=O)O (stereo not drawn) [GL, Glycine-leucine dipeptide, reference compound]
B3Z activation by B16F10, OVA ([2]; co-treatment with 1 mg/mL OVA, GL at 10 mM): no effect on the uptake or processing of OVA
B3Z activation by B16F10, SIINFEKL ([2]; pre-treatment, 1 h pulse 2 nM SIINFEKL, BzFβ 25, 50 μg, GL 10 mM): significantly enhance B3Z activation
MHC class I recovery after acid stripping [3]: no increase in MHC class I production

SMILES: CCN(CC)CCCC(C)Nc1ccnc2cc(Cl)ccc12 (stereo not drawn) [chloroquine, Chloroquine]
inhibition of BzFβ enhancement of B3Z activation [1]: failed to inhibit

SMILES: C[C@@H]1C[C@@H]([C@H](O)CC2CC(=O)NC(=O)C2)C(=O)[C@@H](C)C1 [cycloheximide, Cycloheximide]
inhibition of BzFβ enhancement of B3Z activation [1, 8]: failed to inhibit

SMILES: C=C1[C@@H](C)[C@H]2[C@H](Cc3ccccc3)NC(=O)[C@]23[C@H](OC(C)=O)/C=C/[C@@](C)(O)C(=O)[C@@H](C)C/C=C/[C@H]3[C@@H]1O [cytochalasin D, Cytochalasin D]
inhibition of BzFβ enhancement of B3Z activation [1, 8]: failed to inhibit

SMILES: COc1cccc2c1C(=O)c1c(O)c3c(c(O)c1C2=O)C[C@@](O)(C(=O)CO)C[C@@H]3O[C@H]1C[C@H](N)[C@H](O)[C@H](C)O1 [doxorubicin, Doxorubicin]
inhibition of BzFβ enhancement of B3Z activation [1, 7]: failed to inhibit

SMILES: O=C(O)C=Cc1ccc2c(c1)CCO2 [molecule #2, 3-(2,3-dihydro-1-benzofuran-5-yl)acrylic acid]
B3Z activation by analog-treated DC2.4 [6]: failed to evoke activation of the B3Z response

SMILES: O=C(O)/C=C/c1ccc2c(c1)OCO2 [molecule #4, (2E)-3-(1,3-benzodioxol-5yl)acrylic acid]
B3Z activation by analog-treated DC2.4 [6]: failed to evoke activation of the B3Z response
